Common to all, as to assay: NCI anticancer screen, dose series, 48 h
Experiment [1] has as its system T-47D breast.
Experiment [2] relates to NCI-H23 lung.
Experiment [3] relates to NCI-H522 lung.
Experiment [4] concerns HCT-116 colon.
Experiment [5] deals with UACC-257 melanoma.
The test system of experiment [6] is 786-0 renal.
The subject of experiment [7] is PC-3 prostate.
Experiment [8] concerns HOP-62 NSCLC.
For experiment [9], the system named is SK-MEL-28 melanoma.
Experiment [10] relates to U251 CNS.
Experiment [11] deals with CAKI-1 renal.
In experiment [12] the test system is M14 melanoma.
In experiment [13] the test system is HCT-15 colon.
Experiment [14] concerns OVCAR-5 ovarian.
In experiment [15] the test system is TK-10 renal.
The test system of experiment [16] is OVCAR-4 ovarian.
The subject of experiment [17] is MDA-MB-468 breast.
The test system of experiment [18] is KM12 colon.
Experiment [19] concerns MOLT-4 leukemia.
For experiment [20], the system named is LOX IMVI melanoma.
In experiment [21] the test system is HOP-92 NSCLC.
Experiment [22] concerns SNB-19 CNS.
Experiment [23] deals with SK-OV-3 ovarian.
Experiment [24] has as its system A549 NSCLC.
For experiment [25], the system named is RXF 393 renal.
For experiment [26], the system named is COLO 205 colon.
The test system of experiment [27] is CCRF-CEM leukemia.
Experiment [28] has as its system BT-549 breast.
In experiment [29] the test system is MCF7 breast.
In experiment [30] the test system is OVCAR-3 ovarian.
For experiment [31], the system named is HCC-2998 colon.
For experiment [32], the system named is MDA-MB-435.
The test system of experiment [33] is OVCAR-8 ovarian.
Experiment [34] concerns SF-295 CNS.
The test system of experiment [35] is NCI/ADR-RES ovarian.
The subject of experiment [36] is HL-60(TB) leukemia.
For experiment [37], the system named is SR leukemia.
Experiment [38] has as its system NCI-H226 lung.
For experiment [39], the system named is IGROV1 ovarian.
Experiment [40] relates to K-562 leukemia.
For experiment [41], the system named is DU-145 prostate.
Experiment [42] concerns SW-620 colon.
Experiment [43] has as its system NCI-H460 lung.
The test system of experiment [44] is SK-MEL-5 melanoma.
The subject of experiment [45] is HT29 colon.
Experiment [46] concerns EKVX NSCLC.
Experiment [47] concerns SF-539 CNS.
Experiment [48] relates to MALME-3M melanoma.
In experiment [49] the test system is HS 578T breast.
For experiment [50], the system named is SF-268 CNS.
Experiment [51] relates to ACHN renal.
In experiment [52] the test system is UACC-62 melanoma.
The subject of experiment [53] is A498 renal.
Experiment [54] relates to RPMI-8226 leukemia.
In experiment [55] the test system is SN12C renal.

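1) Cells in 96-well plates. 2) Compound, 48 h, 5 concentrations. 3) Linear interpolation between surrounding doses. 4) Unreached endpoint = highest concentration. The concentration for 50% growth inhibition is given as GI50. Definition used: TGI = concentration required for complete inhibition of growth.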

Turning to `O=C(Nc1ccc(I)cc1)Nc1nc2ccc([N+](=O)[O-])cc2s1`, the GI50 in experiment [1] was 2.8 µM; in experiment [2], 2.23 µM; in [3] it was 2.29 µM; in experiment [4], 2.66 µM; in experiment [5], 2.83 µM; in [6], 3.5 µM. The GI50 was 3.16 µM in experiment [7]; 3.44 µM in [8]; 3.19 µM in experiment [9]; 3.23 µM in [10]; 3.32 µM in experiment [11]; 3.62 µM in experiment [12]. Besides, the GI50 in [13] was 3.2 µM; in experiment [14], 4.11 µM; in experiment [15], 3.67 µM; in [16], 3.69 µM; in [17], 2.83 µM; in experiment [18], 3.36 µM. Also, the GI50 was 2.57 µM in experiment [19]; 3.49 µM in experiment [20]; 2.03 µM in experiment [21]; 3.44 µM in experiment [22]; 2.93 µM in [23]; 3.54 µM in [24]. Besides, the GI50 in [25] is 3.53 µM; in experiment [26], 2.64 µM; in [27] it was 3.4 µM; in experiment [28], 2.31 µM; in [29] it was 2.59 µM; in experiment [30], 3.48 µM. Also, the GI50 was 3.59 µM in [31]; 3.47 µM in experiment [32]; 3.48 µM in experiment [33]; 2.93 µM in experiment [34]; 2.92 µM in experiment [35]; 2.41 µM in experiment [36]. The GI50 in experiment [37] was 2.24 µM; in experiment [38], 3.45 µM; in experiment [39], 3.67 µM; in experiment [40], 3.23 µM; in experiment [41] it was 3.99 µM; in [42], 3.56 µM. The GI50 is 3.21 µM in experiment [43]; 1.93 µM in experiment [44]; 3.32 µM in [45]; 3.08 µM in [46]; 3.01 µM in experiment [47]; 2.41 µM in experiment [48]. The GI50 in [49] was 3.01 µM; in [50] it was 3.63 µM; in [51] it was 3.25 µM; in [52] it was 2.99 µM; in [53], 2.83 µM; in experiment [54], 2.07 µM. In addition, the GI50 in experiment [55] was 2.86 µM. Also, the TGI in [1] amounted to 8.71 µM; in [2], 5.85 µM; in experiment [3], 6.75 µM; in [4], 11 µM; in [5], 8.24 µM; in experiment [6], 13.4 µM. Besides, the TGI in experiment [7] was 11.4 µM; in [8], 12.5 µM; in experiment [9], 10.7 µM; in experiment [10], 10.7 µM; in experiment [11], 12.1 µM; in experiment [12] it was 13.2 µM. The TGI was found to be 11.2 µM in experiment [13]; 15.9 µM in [14]; 11.7 µM in experiment [15]; 14.5 µM in [16]; 7.4 µM in experiment [17]; 11.6 µM in experiment [18]. In addition, the TGI in experiment [19] amounted to 7.12 µM; in experiment [20] it was 11.7 µM; in experiment [21] it was 6.28 µM; in [22], 12.9 µM; in experiment [23], 9.16 µM; in experiment [24], 13.5 µM. Moreover, the TGI in experiment [25] was 12.9 µM; in experiment [26] it was 6.52 µM; in [27] it was 10.8 µM; in [28], 7.29 µM; in experiment [29], 7.79 µM; in experiment [30] it was 12.6 µM. In addition, the TGI in experiment [31] stood at 12.3 µM; in experiment [32], 12.5 µM; in [33], 11.8 µM; in experiment [34], 10.6 µM; in experiment [35] it was 9.27 µM; in experiment [36], 6.05 µM. Moreover, the TGI in experiment [37] was determined as 5.84 µM; in experiment [38], 13 µM; in [39], 14 µM; in experiment [40], 10.9 µM; in experiment [41] it was 14 µM; in experiment [42], 13.1 µM. Further, the TGI came out at 10.4 µM in [43]; 3.9 µM in [44]; 13.4 µM in experiment [45]; 10.9 µM in [46]; 9.39 µM in experiment [47]; 6.89 µM in experiment [48]. In addition, the TGI in experiment [49] was 9.9 µM; in experiment [50], 14.6 µM; in experiment [51], 10.4 µM; in experiment [52], 10.3 µM; in experiment [53] it was 9.14 µM; in [54], 5.23 µM. The molecule further gave a TGI in experiment [55] of 9.42 µM.
Turning to `c1cc2ccc3cc2cc1CNCCN1CCNCc2ccc4ccc(cc4c2)CNCCN(CCNC3)CCNCc2ccc3ccc(cc3c2)CNCC1`, in experiment [17], the GI50 is 2.01 µM and the TGI was determined as 4 µM.
On the same counts, the results for `O=C(O)c1cc2cc(OCc3ccccc3)ccc2[nH]1` are over 100 µM and over 100 µM.
In the case of `COc1ccc(C(=O)C2C(C#N)C(C#N)C3C=Cc4ccccc4N32)cc1` (stereo not drawn), in experiment [17], the GI50 was 2.31 µM and the TGI is over 100 µM.
On the same counts, the results for `O=C(N/N=C\c1cc(Cl)ccc1O)c1ccncc1` are 1.83 µM and 9.82 µM.
On the same counts, the results for `COc1ccc(C(=O)/C=C/c2ccc(OCc3ccc(Cl)cc3)cc2)cc1OC` are 40.6 µM and 271 µM.
On the same counts, the results for `Cc1ccncc1N1CCN(c2ccnc(Cl)c2)C1=O` are over 100 µM and over 100 µM.
As for `N#CCCN1C/C(=C/c2ccccc2)C(=O)/C(=C/c2ccccc2)C1`, in experiment [17], the GI50 is 1.68 µM and the TGI was found to be 3.78 µM.
Take `O=C(CC1(O)C(=O)N(Cc2ccccc2)c2ccc(Br)cc21)c1ccc(C(=O)NCC2CCC3(CC2)OOC2(CCCCC2)OO3)cc1` (stereo not drawn): in experiment [17], the GI50 is 2.01 µM and the TGI was determined as 6.72 µM.
On the same counts, the results for `CCCCCC/C=C\CCCCCCCCCc1cc(O)cc(OC)c1O` are 0.296 µM and 0.828 µM.
On to `CC1=C2[C@H]3OC(=O)[C@@H](C)[C@@H]3CC[C@@]2(C)C=CC1=O`, for which, in [17], the GI50 was over 100 µM and the TGI was over 100 µM.
Turning to `O=C1N=C(c2c(-c3[nH]c(=O)c4ccc(Br)cc4c3O)c(O)c3ccccc3c2O)C(=O)c2cc(Br)ccc21`, in [17], the GI50 was 0.412 µM and the TGI is 1.49 µM.
On to `Cc1ccc(S(=O)(=O)Oc2ccccc2-c2ccccc2)cc1`, for which, in experiment [17], the GI50 is 0.866 µM and the TGI is 4.22 µM.
On to `Cc1ccc2nc3ccccc3c(NCc3ccccc3)c2c1`, for which, in experiment [17], the GI50 was 1.52 µM and the TGI is 5.54 µM.
On the same counts, the results for `COc1ccc(NC(=O)c2sc3nc(C)c(C(=O)/C=C/c4ccccc4)cc3c2N)cc1` are 0.92 µM and 2.03 µM.
On the same counts, the results for `CCCCCCCCCCCCCCNc1nc(C(=O)OCC)ncc1-c1ccc(C(F)(F)F)cc1` are over 100 µM and over 100 µM.
On the same counts, the results for `Cn1ccnc1C(=O)/C=C/c1ccc(C(=O)Nc2ccccc2F)cc1` are 2.49 µM and 8.3 µM.
Turning to `O=C(Nc1ccc(-n2ccc3c(NC(=O)c4ccccc4)nccc32)cc1)c1cccc(C(F)(F)F)c1`, in [17], the GI50 was 1.2 µM and the TGI stood at 7.3 µM.
As to `Nc1c(C(=O)Nc2ccccc2)sc2nc3c(cc12)C(O)CCC3` (stereo not drawn), in experiment [17], the GI50 was 0.29 µM and the TGI was over 100 µM.
On the same counts, the results for `O=c1c2sc3ccccc3c2nnn1-c1ccc(F)c(Cl)c1` are 12.8 µM and 99.5 µM.

(Values after PubChem BioAssay (NCI).)
